Where no end group is shown, it is not given here. [ ]: non-standard residue; d: D form. dPhe(F5) = N[C@H](Cc1c(F)c(F)c(F)c(F)c1F)C(=O)O; dBpa = N[C@H](Cc1ccc(C(=O)c2ccccc2)cc1)C(=O)O; dCha = N[C@H](CC1CCCCC1)C(=O)O
Tests used:
A549 = assay: CDDP-enhancing activity of CBP501, cell cycle distribution by flow-cytometry; type: cell-based, Human; conditions: 1 h co-exposure with CDDP, shift of subG1 or G2/M dose-response curve
Description: (§1) Cell culture and reagents. Human NSCLC cell lines were cultured in a variety of media, each supplemented with 10% fetal bovine serum (Invitrogen, San Diego, CA) at 37° C. with 5% CO2/air. The media used was RPMI1640 (Sigma-Aldrich, St. Louis, Mo.) for NCI-H1755, NCI-H2030, NCI-H1437, NCI-H2122, NCI-H2172, NCI-H2228, NCI-H1563, NCI-H1944, NCI-H1993, NCI-H1734, NCI-H1568, NCI-H2444, NCI-H2291, NCI-H2347, NCI-H1838, NCI-H1299, HCC827, NCI-H1975, NCI-H1155, NCI-H522 and NCI-H1703; RPMI1640 supplemented with 2mM L-glutamine (Invitrogen) for NCI-H727; RPMI1640 supplemented with 4.5 g/L D-glucose (Sigma-Aldrich), 10 mM HEPES (Sigma-Aldrich) and 1 mM sodium pyruvate (Sigma-Aldrich) for NCI-H358, NCI-H520, NCI-H23, NCI-H647 and NCI-H838; Ham's F12K (Sigma-Aldrich) for A549. CDDP was purchased from Sigma-Aldrich. Sulforaphane (SFN) was purchased from Sigma-Aldrich. All NSCLC cell lines were purchased from ATCC and STR analysis had been performed by ATCC to authenticate the identity of each cell line. All cell lines were used within three months after thawing.
(§2) Cell cycle analysis. Cells were plated in 24-well plates and incubated for 24 hours. The cells were treated with or without CDDP plus or minus CBP501 at the indicated concentration for the indicated times. The cells were harvested and stained with Krishan's solution (0.1% sodium citrate, 50 μg/ml propidium iodide, 20 μg/ml RNase A, 0.5% NP-40). Stained cells were analyzed by FACSCalibur (Becton Dickinson, Franklin Lakes, N.J.) using CELLQuest software (Becton Dickinson).
(§3) Here, the change in the cell cycle distribution, as indicated by flow-cytometry, was used to estimate the sensitivity of NSCLC cell lines to CBP501-enhanced cytotoxicity to CDDP. Such changes were monitored in cells treated with CDDP in the presence or absence of CBP501. The utility of this analysis for assessing the effectiveness of anti-cancer therapy is based on the absence of functioning G1/S checkpoint regulation in the cell cycle of many types of cancer cells (14). Lack of a functional G1/S checkpoint leads to an accumulation of cancer cells in G2/M phase upon their exposure to DNA-damaging anticancer agents (14, 15).
(§4) To assess the CDDP-enhancing activity of CBP501, one can examine either of two dose-response curves in which the X-axis indicates the dose of CDDP and Y-axis indicates either the number of cells in subG1 or in G2/M. The transition and peak in either dose-response curve will shift to the left in the presence of CBP501 for CBP501-sensitive cells, indicating the enhanced ability of CDDP to change the cell cycle distribution. […] Using this criterion based on CBP501's ability to shift the CDDP-induced subG1 or G2/M dose-response curve, twelve NSCLC cell lines were classified as being either, CBP501-sensitive or CBP501-insensitive. Cell lines that shifted the curve two fold or more were classified as CBP501 sensitive cells and those that shifted the curve less than two fold were classified as CBP501 insensitive (Table 1). Classification of CBP501 sensitivity in NSCLC cell lines.
(§5) Although the expression of Nrf2 or its several downstream transcription targets may possibly predict resistance to CBP501, the general reliability of these predictive markers for CBP501-sensitivity remained to be established. The combination effect of CBP501 and CDDP in sixteen additional NSCLC cell lines, classifying each as CBP501 sensitive or insensitive by the prior criteria was analyzed (Table 2). Classification of CBP501 sensitivity in additional NSCLC cell lines.

HCC827 = assay: as above; type: cell-based, Human; conditions: 1 h co-exposure with CDDP
Description: as §1, §2, §3, §4, §5

NCI-H1155 = assay: as above; type: cell-based, Human; conditions: 1 h co-exposure with CDDP
Description: as §1, §2, §3, §4, §5

NCI-H1299 = assay: as above; type: cell-based, Human; conditions: 1 h co-exposure with CDDP, shift of subG1 or G2/M dose-response curve
Description: as §1, §2, §3, §4, §5

NCI-H1563 = assay: as above; type: cell-based, Human; conditions: 1 h co-exposure with CDDP
Description: as §1, §2, §3, §4, §5

NCI-H1734 = assay: as above; type: cell-based, Human; conditions: 1 h co-exposure with CDDP
Description: as §1, §2, §3, §4, §5

NCI-H1755 = assay: as above; type: cell-based, Human; conditions: 1 h co-exposure with CDDP
Description: as §1, §2, §3, §4, §5

NCI-H1975 = assay: as above; type: cell-based, Human; conditions: 1 h co-exposure with CDDP
Description: as §1, §2, §3, §4, §5

NCI-H1993 = assay: as above; type: cell-based, Human; conditions: 1 h co-exposure with CDDP, shift of subG1 or G2/M dose-response curve
Description: as §1, §2, §3, §4, §5

NCI-H23 = assay: as above; type: cell-based, Human; conditions: 1 h co-exposure with CDDP, shift of subG1 or G2/M dose-response curve
Description: as §1, §2, §3, §4, §5

NCI-H358 = assay: as above; type: cell-based, Human; conditions: 1 h co-exposure with CDDP, shift of subG1 or G2/M dose-response curve
Description: as §1, §2, §3, §4, §5

NCI-H520 = assay: as above; type: cell-based, Human; conditions: 1 h co-exposure with CDDP
Description: as §1, §2, §3, §4, §5

NCI-H522 = assay: as above; type: cell-based, Human; conditions: 1 h co-exposure with CDDP
Description: as §1, §2, §3, §4, §5

NCI-H647 = assay: as above; type: cell-based, Human; conditions: 1 h co-exposure with CDDP, shift of subG1 or G2/M dose-response curve
Description: as §1, §2, §3, §4, §5

NCI-H727 = assay: as above; type: cell-based, Human; conditions: 1 h co-exposure with CDDP
Description: as §1, §2, §3, §4, §5

[1] = test system: platinum-resistant ovarian carcinoma and MPM; conditions: cited from earlier work
cancer cells [2] = conditions: cited from earlier work
calmodulin = calmodulin (Homo sapiens, UniProt P0DP23); conditions: cited from earlier work
cancer cells [3] = conditions: shorter exposure and lower doses of CBP501 than required for G2 checkpoint abrogation; cited from earlier work
[4] = shift of subG1 or G2/M dose-response curve

Substance: (d-Bpa)(d-Ser)(d-Trp)(d-Ser)(d-Phe-2,3,4,5,6-F)(d-Cha)(d-Arg)(d-Arg)(d-Arg)(d-Gln)(d-Arg)(d-Arg) ([dBpa][dS][dW][dS][dPhe(F5)][dCha][dR][dR][dR][dQ][dR][dR]) [CBP501, anti-cancer drug candidate; calmodulin modulation and G2 checkpoint abrogation]
- Folds increase of CDDP effect by CBP501 (A549): 2 fold
- Definition of CBP501 sensitivity (HCC827): Sensitive (Cell lines that shifted the curve two fold or more were classified as CBP501 sensitive cells)
- Folds increase of CDDP effect by CBP501 (HCC827; [4]): 4 fold
- Definition of CBP501 sensitivity (NCI-H1155): Insensitive (those that shifted the curve less than two fold were classified as CBP501 insensitive)
- Folds increase of CDDP effect by CBP501 (NCI-H1155; [4]): 1.5 fold
- Folds increase of CDDP effect by CBP501 (NCI-H1299): 8 fold
- Definition of CBP501 sensitivity (NCI-H1563): Insensitive (those that shifted the curve less than two fold were classified as CBP501 insensitive)
- Folds increase of CDDP effect by CBP501 (NCI-H1563; [4]): 1.5 fold
- Definition of CBP501 sensitivity (NCI-H1734): Sensitive (Cell lines that shifted the curve two fold or more were classified as CBP501 sensitive cells)
- Folds increase of CDDP effect by CBP501 (NCI-H1734; [4]): 2 fold
- Definition of CBP501 sensitivity (NCI-H1755): Insensitive (those that shifted the curve less than two fold were classified as CBP501 insensitive)
- Folds increase of CDDP effect by CBP501 (NCI-H1755; [4]): 1 fold
- Definition of CBP501 sensitivity (NCI-H1975): Sensitive (Cell lines that shifted the curve two fold or more were classified as CBP501 sensitive cells)
- Folds increase of CDDP effect by CBP501 (NCI-H1975; [4]): 2 fold
- Folds increase of CDDP effect by CBP501 (NCI-H1993): 2 fold
- Folds increase of CDDP effect by CBP501 (NCI-H23): 4 fold
- Folds increase of CDDP effect by CBP501 (NCI-H358): 1 fold
- Definition of CBP501 sensitivity (NCI-H520): Sensitive (Cell lines that shifted the curve two fold or more were classified as CBP501 sensitive cells)
- Folds increase of CDDP effect by CBP501 (NCI-H520; [4]): 2 fold
- Definition of CBP501 sensitivity (NCI-H522): Sensitive (Cell lines that shifted the curve two fold or more were classified as CBP501 sensitive cells)
- Folds increase of CDDP effect by CBP501 (NCI-H522; [4]): 2 fold
- Folds increase of CDDP effect by CBP501 (NCI-H647): 1.5 fold
- Definition of CBP501 sensitivity (NCI-H727): Insensitive (those that shifted the curve less than two fold were classified as CBP501 insensitive)
- Folds increase of CDDP effect by CBP501 (NCI-H727; [4]): 1 fold
- Primary endpoint for efficacy ([1]; MPM): primary endpoint for efficacy was achieved
- Clinical activity ([1]; combination of CDDP plus CBP501, patients with platinum-resistant ovarian carcinoma and MPM): showed evidence of clinical activity
- Phosphorylation of CDC25C at Ser216 (cancer cells [2]): attenuates phosphorylation of CDC25C at Ser216
- Accumulation of cancer cells at G2/M (cancer cells [2]; lengthy combined exposure with CDDP or bleomycin (BLM)): reduces the accumulation of cancer cells at G2/M
- Interaction with calmodulin (calmodulin): direct interaction
- Uptake of CDDP into cancer cells (cancer cells [3]): increased uptake of CDDP into cancer cells

Reference: patent US20160061841A1, “NRF2-BASED CANCER TREATMENT AND DETECTION METHODS AND USES” (CanBas Co., Ltd., priority 2014, published 2016)
